Read-outs that look alike come from different tables or passages of the source.
How the values were obtained:
HCV [1] = assay: Anti-HCV activity in HCV-infected Huh7.5 cells (intracellular HCV RNA, qRT-PCR); format: cell-based, hepatitis C virus; conditions: for EC50: Hepatitis C virus, read-out: half maximal effective concentration (EC50) against HCV at RNA level; for selective index (SI): Huh7.5 cells, cytotoxicity by MTT assay vs anti-HCV EC50, 72 hrs
[2] = Cytotoxicity in Vero cells; format: cell-based; conditions: African green monkey
HCV [3] = assay: Inhibition of HCV entry (treatment before, during or after infection); format: cell-based, hepatitis C virus; conditions: Huh7.5 cells
Excerpt: Then, the cells were washed and cultured with fresh medium. Intracellular HCV RNA and proteins were detected in 72 hrs.

[4] = test system: hepatitis B virus, influenza virus, herpes simplex virus and Coxsackie virus; assay: Activity of CD36 inhibitors against other viruses; format: cell-based; conditions: HepG2.2.15, MDCK and Vero cell cultures
[5] = test system: Influenza virus A/Tianjin-Jinnan/15/2009; assay: microbe, parasite or virus in culture; conditions: unidentified influenza virus, MDCK
KM mice = assay: Safety of SSO in vivo (single oral dose, KM mice); conditions: single oral dose up to 1000 mg/kg, day 7
Excerpt: KM mice at a weight of 21.0 ± 1.0 g were from Laboratory Animal Center, Academy of Military Medical Sciences, Beijing, China. The mice were randomly divided into four groups with 10 mice in each (♂ × 5, ♀ × 5). […] Body weight as well as survival was monitored. Seven days later, blood samples were taken for liver and kidney function examination.

hepatitis B virus (HBV) = assay: Activity against HBV in HepG2.2.15 cells; format: cell-based
[6] = test system: herpes simplex virus type 1 (HSV-1); assay: Activity against HSV-1 in Vero cells; format: cell-based; conditions: Human alphaherpesvirus 1; HSV-1, Vero
HCV [7] = assay: Influence of CD36 level on the anti-HCV activity of SSO; format: cell-based, hepatitis C virus; conditions: 5 μM SSO for 2 hrs, HCV 150 IU/cell, RNA in 96 hrs, P < 0.01
Procedure: Intracellular HCV RNA was analyzed with qRT-PCR in 96 hrs.

SR-BI = target: T1, SR-BI (Homo sapiens, UniProt Q8WTV0); assay: BIAcore surface plasmon resonance binding to SR-BI-HA; conditions: immobilised SR-BI-HA
T1 construct: made in house; host or cells: 293T/17 cells
T1 sequence (Q8WTV0 1-509 isoform Q8WTV0-2): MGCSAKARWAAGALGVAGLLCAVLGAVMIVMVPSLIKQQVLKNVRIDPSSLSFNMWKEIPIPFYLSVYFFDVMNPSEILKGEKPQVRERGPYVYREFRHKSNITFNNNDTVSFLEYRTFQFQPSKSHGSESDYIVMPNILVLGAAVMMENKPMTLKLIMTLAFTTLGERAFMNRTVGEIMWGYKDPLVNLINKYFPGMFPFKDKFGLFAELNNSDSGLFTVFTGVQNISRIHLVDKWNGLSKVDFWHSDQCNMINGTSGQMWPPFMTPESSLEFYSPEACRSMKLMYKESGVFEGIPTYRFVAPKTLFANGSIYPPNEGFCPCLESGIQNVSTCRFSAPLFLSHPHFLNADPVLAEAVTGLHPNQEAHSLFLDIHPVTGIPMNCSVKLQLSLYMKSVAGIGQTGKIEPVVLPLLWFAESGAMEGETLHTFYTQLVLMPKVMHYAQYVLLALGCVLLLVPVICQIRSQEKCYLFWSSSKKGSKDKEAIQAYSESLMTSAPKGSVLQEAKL
Procedure: The 293T/17 cells were transfected with CD36-HA or SR-BI-HA plasmid using HD transfection reagent. At 48 hrs post transfection, cells were harvested and protein CD36-HA or SR-BI-HA was purified with Pierce Anti-HA Agarose (Thermo Scientific) and then desalinated with Zeba Spin Desaling Columns (Thermo Scientific). The concentration of purified proteins was quantified with Pierce BCA Protein Assay Kit (Thermo Scientific). Then, surface plasmon resonance experiments were performed on a BIAcore biosensor system (BIAcore T100). In brief, the carboxymethylated surface of series S sensor chip CM5 (GE Healthcare Bio-Sciences) was first activated with a mixture of N-hydroxysuccinimide (NHS) and 1-ethyl-3-(3- dimethylaminopropyl) carbodiimide hydro-chloride (EDC) (BIAcore AB). Subsequently, 200 μL of purified CD36-HA or SR-BI-HA at a concentration of 80 μg/mL was injected into the flow cell (FC2) for immobilization on the sensor surface. […] Compound VX-950 was used as negative control. Data were evaluated using the software BIAcore T100 Evaluation (BIAcore AB).

[8] = test system: Influenza virus BV/Shenzhen/155/2005; assay: microbe, parasite or virus in culture; conditions: unidentified influenza virus, MDCK
MDCK cells = assay: Cytotoxicity in MDCK cells; format: cell-based; conditions: Influenza virus BV/Shenzhen/155/2005 test
[9] = Cytotoxicity in MDCK cells; format: cell-based; conditions: dog, Influenza virus A/Tianjin-Jinnan/15/2009 test
[10] = test system: Coxsackie B virus (CoxV-B1); assay: microbe, parasite or virus in culture; conditions: Vero
[11] = Cytotoxicity in HepG2.2.15 cells; format: cell-based; conditions: human, HBV test
[12] = test system: HCV subgenomic replicon I 377-3′del.S in GS4.3 cells; assay: HCV subgenomic replicon replication in GS4.3 cells; format: cell-based, hepatitis C virus; conditions: 72 hrs incubation, intracellular RNA; VX-950 at 1.0 μM
Procedure: Huh7.5 cells infected with HCV (45 IU/cell), or GS4.3 replicon cells were treated with different concentration of compounds. After 72 hrs, intracellular RNA was extracted with RNeasy Mini Kit; total intracellular proteins were extracted with PER. HCV RNA and proteins were analyzed with qRT-PCR and WB, respectively. Compound cytotoxicity in Huh7.5 cells or GS4.3 replicon cells were evaluated at 72 hrs with the tetrazolium (MTT, Amresco) assay.

HCV particle = assay: Interaction between HCV and compounds (direct inactivation of HCV particles); format: cell-based, hepatitis C virus; conditions: 1 hr room temperature, Huh7.5, 72 hrs; for HCV inhibitory activity, Group 1 (treated HCV stock, no ultracentrifugation): SSO 10 μM or VX-950 0.5 μM, P < 0.01
CD36 = target: T2, CD36 (Homo sapiens, UniProt P16671); assay: BIAcore surface plasmon resonance binding to CD36-HA; conditions: immobilised CD36-HA; SSO 50, 100, 200, 500 μM
T2 construct: made in house; host or cells: 293T/17 cells

HCV [13] = assay: Time-of-addition assay; format: cell-based, hepatitis C virus; conditions: 10 nM bafilomycin A1, Huh7.5, HCV 300 IU/cell
Procedure: Huh7.5 cells were infected with HCV (300 IU/cell) and incubated at 4 °C for 2 hrs, the cells were then washed with cold PBS and shifted to 37 °C (set as 0 hr time point) to initiate synchronous infection. […] Intracellular HCV RNA was detected after 72 hrs incubation. Inhibitory ratio was calculated as % relative to infectious control (0%). Fitted lines represent sigmoidal time-dependent curves.

T2 sequence (P16671 whole entry): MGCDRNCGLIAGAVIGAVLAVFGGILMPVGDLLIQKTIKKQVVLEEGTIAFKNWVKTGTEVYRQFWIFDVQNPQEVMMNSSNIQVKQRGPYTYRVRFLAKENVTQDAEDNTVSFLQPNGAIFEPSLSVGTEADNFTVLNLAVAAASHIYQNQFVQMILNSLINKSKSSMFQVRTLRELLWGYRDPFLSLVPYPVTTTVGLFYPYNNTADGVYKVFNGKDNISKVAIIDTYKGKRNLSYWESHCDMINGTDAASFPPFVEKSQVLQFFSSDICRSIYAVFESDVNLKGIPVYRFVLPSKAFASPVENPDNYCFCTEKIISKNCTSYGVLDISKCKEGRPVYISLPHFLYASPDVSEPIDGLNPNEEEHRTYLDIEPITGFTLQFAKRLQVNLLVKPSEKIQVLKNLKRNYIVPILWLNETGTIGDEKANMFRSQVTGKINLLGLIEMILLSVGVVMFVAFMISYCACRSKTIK

Q: With COc1cc(O)c(/C=N/NC(=O)c2cc3ccccc3s2)c(OC)c1 [AP5055] as the compound, how does the EC50 (HCV [1]; Huh7.5 cells infected with HCV (45 IU/cell), 72 hrs, intracellular HCV RNA) read?
A: 0.39 ± 0.16 µM

Q: What about the “selective index (SI)” value (HCV [1]) of the same compound?
A: 25

Q: What does the source list for CCCCCCCC/C=C\CCCCCCCC(=O)ON1C(=O)CC(S(=O)(=O)O)C1=O (centres unmarked) [SSO, sulfo-N-succinimidyl oleate]?
A: CC50 ([2]; CoxV-B1 test): 111 µM; CC50 ([2]; HSV-1 test): > 200 µM; HCV replication, treatment after infection (HCV [3]; 2 hrs treatment after infection, detected in 72 hrs, P > 0.05): no inhibitory effect; HCV replication, treatment before and during HCV infection (HCV [3]; 2 hrs treatment, HCV RNA and proteins in 72 hrs, P < 0.01): strongly inhibit HCV replication; inhibitory activity on hepatitis B virus, influenza virus, herpes simplex virus and Coxsackie virus [4]: no inhibitory activity; EC50 [5]: 79 µM; liver and kidney function: blood GOT, GPT, BUN and CRE (KM mice): abnormality was not detected; EC50 (hepatitis B virus (HBV)): > 100 µM; EC50 [6]: > 200 µM; anti-HCV activity of SSO in cells transfected with CD36 plasmid (HCV [7]): decreased; anti-HCV activity of SSO in cells transfected with siRNA for CD36 (HCV [7]): increased; direct binding to SR-BI (BIAcore) (SR-BI): no binding on SR-BI; EC50 [8]: 200 µM; CC50 (MDCK cells): > 200 µM; CC50 [9]: > 200 µM; EC50 [10]: > 66.7 µM; CC50 [11]: > 100 µM; EC50 (HCV [1]; Huh7.5, 72 h): 0.31 ± 0.09 µM; anti-HCV efficacy in combination with IFN-α (HCV [1]; SSO 1.0 μM + IFN-α 1.0 U/mL, HCV-infected Huh7.5 cells, 72 hrs, P < 0.05 vs IFN-α alone): enhanced anti-HCV efficacy; anti-HCV efficacy in combination with telaprevir (VX-950) (HCV [1]; SSO 1.0 μM + VX-950 0.1 μM, HCV-infected Huh7.5 cells, 72 hrs, P < 0.05 vs telaprevir alone): enhanced anti-HCV efficacy; replication of the HCV replicon in GS4.3 cells [12]: did not inhibit the replication; HCV inhibitory activity, Group 1 (treated HCV stock, no ultracentrifugation) (HCV particle): showed HCV inhibitory activity; infectivity of treated virus, Group 2 (after ultracentrifugation) (HCV particle; SSO 10 μM, ultracentrifuged, P > 0.05): infectivity equal to that of untreated control

Q: Which “direct binding to SR-BI (BIAcore)” value (SR-BI) does the source give for CCC[C@H](NC(=O)[C@@H]1[C@H]2CCC[C@H]2CN1C(=O)[C@@H](NC(=O)[C@@H](NC(=O)c1cnccn1)C1CCCCC1)C(C)(C)C)C(=O)C(=O)NC1CC1 [VX-950, telaprevir] here?
A: no binding on SR-BI

Q: And the “direct binding to CD36 (BIAcore)” value (CD36)?
A: did not bind onto CD36

Q: And the “replication of the HCV replicon in GS4.3 cells” value [12]?
A: strong inhibitory effect

Q: And the “HCV inhibitory activity, Group 1 (treated HCV stock, no ultracentrifugation)” value (HCV particle)?
A: showed HCV inhibitory activity

Q: Which results are given for COc1ccc2cc[n+](CCc3ccccc3)cc2c1O [W-9]?
A: EC50 (HCV [1]; Huh7.5, 72 h): 6.61 ± 3.18 µM; selective index (SI) (HCV [1]): 20

Q: For CO/C1=C\C(C)=C\[C@@H](C)[C@@H](O)[C@@H](C)C/C(C)=C/C=C/[C@H](OC)[C@@H]([C@@H](C)[C@@H](O)[C@H](C)[C@@]2(O)C[C@@H](O)[C@H](C)[C@@H](C(C)C)O2)OC1=O [bafilomycin A1], which “time HCV remained sensitive to the inhibitor after shift to 37 °C” value (HCV [13]) is on record?
A: 3 h

Reference: article PMC4761891, “CD36 is a co-receptor for hepatitis C virus E1 protein attachment” (Scientific Reports, 2016)
